The values that follow are results of earlier work, collected in patent publication US20170343557A1, “USE OF 5-METHOXYTRYPTOPHAN AS DIAGNOSTIC AGENT OF INFLAMMATORY DISEASES” (NATIONAL HEALTH RESEARCH INSTITUTES, priority 2014, published 2017).

Series [1] deals with cancer metastasis in a xenograft model.
Series [2] deals with cancer cell migration and invasion.
Series [3] relates to COX-2 expression in fibroblasts and cancer cells.

With `COc1ccc2[nH]cc(C[C@H](N)C(=O)O)c2c1` [5-MTP, 5-methoxytryptophan], the Cancer metastasis result in series [1] is given as “reduces”. In addition, in series [2], the “Cancer cell migration and invasion” value is on record as “reduces”. In addition, the “Proinflammatory mediator-induced COX-2 expression” value in series [3] is listed as “inhibits”.
